Assay results reported in patent publication US6864288B2, “Regulation of phospholipase D activity” (Brigham & Women's Hospital, Inc., priority 1999, dated 2005).
Each block holds one compound with its values, some of them ahead of it.

Assays:
[1] = test system: cabbage phospholipase D (cPLD, EC 3.1.4.4); assay: Purified cabbage PLD activity (choline release from PC), enzyme kinetics with lipids; assay type: biochemical; conditions: for Vm app: cPLD in presence of the lipid, enzyme alone Vm 0.29 (nmoles/sec); for inhibition of cPLD (in words): compared with PSDP; for Ki: cPLD 3 u/reaction, 30° C., PC 0.5-5 mM, Ki from Slope = Km/Vm (1 + [I]/Ki)
Description: Reactions were terminated at 30 sec intervals and choline release quantitated as in FIG. 2 legend. Values represent the mean for n≧4 for reactions in the absence of PSDP (●, r^2=0.963) and the mean for n≧3 with PSDP (Δ, r^2=0.995, 0.971 and 0.953 for 10, 100 and 1000 nM, respectively). CS Chem3D Pro software (CambridgeSoft Corp., Cambridge, Mass.) was used to calculate an energy minimized model of PSDP (inset).
(§1) PMN lysates (90-130 μg protein), purified phospholipase D (3-30 units) (EC 3.1.4.4., Sigma Chemical Co.) or recombinant hPLD1b were warmed (37° C. for mammalian enzyme and 30° C. for cabbage, 3 min) and exposed to PSDP, PSMP or FDP (10-1000 nM, 5 min, 37° C. or 30° C.) followed by PC (0.5 to 5 mM) in Tris-HCl (50 mM pH 7.5) with CaCl2 (30 mM). Reactions were terminated at 30 second intervals (0-90 seconds) with Tris-HCl (1 M) plus EDTA (50 mM). Choline release was quantitated as in ref 26.

[2] = test system: [32P]-PSDP in human PMN; assay: PSDP remodeling in [32P]-labeled human PMN (TLC, phosphoimaging); assay type: cell-based
Description: Panel A: Scheme for aspirin-triggered 15-epi-LXA4 biosynthesis and structure of the stable analog, 15-epi-16-para-fluoro-phenoxy-LXA4-methyl ester (15-epi-LXa) (left), and hypothetical scheme for PIPP signaling (right). PMN were labeled with [γ-^32P]-ATP and incubated (12.5×10^6 ml^−1, 37° C.) with LTB4 (●, 100 nM), 15-epi-LXa (♦, 100 nM), vehicle (□, 0.1% ethanol) or 15-epi-LXa (100 nM, 5 min) followed by LTB4 (▴, 100 nM). Non-saponifiable lipids were extracted and separated by TLC, and [^32P]-incorporation was quantitated by phosphoimaging (see Methods). Values are densitometric measurements.
Peripheral venous blood (˜180 ml) was obtained by venipuncture from healthy volunteers who denied taking any medication for at least two weeks and had given written informed consent to a protocol approved by Brighamn and Women's Hospital's Human Research Committee. PMN were isolated from whole blood and steady state labeled with [γ-^32P]ATP (40 μCiml^−1, 90 min, 37° C.) as in (Levy, B. D., Petasis, N. A., and Serhan, C. N. (1997) Polyisoprenyl phosphates in intracellular signalling. Nature 389, 985-989). Labeled PMN were resuspended (20×10^6 ml^−1 PBS with 1 mM CaCl2, pH 7.40) and exposed to LTB4 (100 nM), 15-epi-LXa (100 nM) or vehicle (0.1% EtOH) for 0 to 300 seconds (37° C.). From each incubation, aliquots were removed at indicated intervals to determine the radiolabeling of nonsaponifiable lipids (10-12×10^6 PMN) and PLD activity (1-1.25×10^6 PMN). Materials present in each incubation were saponified, extracted and separated by TLC with phosphoimaging (model 425E and integration software; Molecular Dynamics), which was used for PSDP mass determination as in ref 22.

[3] = test system: PLD activity in human PMN; assay: LTB4-stimulated PLD activity in lysates of treated human PMN; assay type: cell-based
Description: (§2) Cell lysates (2-5×10^6 cells, 90-130 μg protein) were prepared from the same aliquots of PMN used to determine PSDP (see FIG. 1 & Methods), warmed to 37° C. and exposed to PC (2 mM in 50 mM Tris-HCl, pH 7.5, plus 30 mM CaCl2). Reactions were terminated at 30 sec intervals and choline release was quantitated (26). […] Superoxide anion generation by freshly isolated human PMN was determined (10 min, 37° C.) for LTB4 (100 nM), 15-epi-LXa (100 nM), and increasing concentrations of 15-epi-LXa (1-100 nM, 5 min, 37° C.) followed by LTB4 (100 nM, 10 min, 37° C.). Values reported in Panel C are the mean±S.E. for n=3 separate PMN donors. *P<0.05 by Student's t-test.
Peripheral venous blood (˜180 ml) was obtained by venipuncture from healthy volunteers who denied taking any medication for at least two weeks and had given written informed consent to a protocol approved by Brighamn and Women's Hospital's Human Research Committee. […]
as §1, with “Reactions were terminated at 30 second intervals (0-90 seconds) with Tris-HCl (1 M) plus EDTA (50 mM).” left out

[4] = test system: human PMN; assay: LTB4-stimulated superoxide anion generation by human PMN (cytochrome c); assay type: cell-based; conditions: 15-epi-LXa 1-100 nM, 5 min, then LTB4 100 nM, 10 min, 37° C.
Description: as §2
Freshly isolated human PMN (1-3×10^6 PMN/ml HBSS+1.6 mM CaCl2) were incubated (5 min, 37° C.) in the presence of 15-epi-LXa (1-100 nM) or vehicle (0.1% ethanol), and then exposed (10 min) to LTB4 (100 nM) in the presence of cytochrome c (7 mg/ml). Superoxide anion generation was determined as in ref 22.

[5] = test system: PLD activity in PMN lysates; assay: PLD activity in PMN lysates after LTB4, lipid added to the lysate; assay type: biochemical, human; conditions: 100 nM added to PMN lysates 60 sec after LTB4 100 nM
Description: Lysates were generated from cells at rest or after exposure to agonist using a lysis buffer comprised of 0.1 M Hepes (pH 7.4), 0.7 mM sodium orthovanadate, 10 μM p-nitrophenylphosphate, 10 mM EGTA, 5.5% triton X-100, 0.5 M β-glycerophosphate, 10 mM phenylmethylsulfonylfluoride, 0.1 mM ammonium molybdate, 12 mM DFP, 5 μgml^−1 leupeptin, 2 μgml^−1 aprotinin and 7 μgml^−1 pepstatin A (as in ref 25) and utilized for bioassay.
as §1
Because PLD activation occurs in vivo in the presence of many cofactors which modulate its activity, it was also determined the impact of PSDP on PLD activity in PMN lysates. Sixty seconds following LTB4, PSDP levels decreased (28%, FIG. 1) and PLD activity was maximal (FIG. 2).

[6] = target: T1, recombinant human PLD1b (rhPLD1b) (Homo sapiens, UniProt Q13393); assay: Recombinant human PLD1b activity (choline release from PC), enzyme kinetics with PSDP; assay type: biochemical
T1 construct: made in house; host or cells: Spodoptera frugiperda Sf9 cells, recombinant baculovirus (pACGHLT transfer vector)
T1 sequence (Q13393 1-1036 isoform Q13393-2): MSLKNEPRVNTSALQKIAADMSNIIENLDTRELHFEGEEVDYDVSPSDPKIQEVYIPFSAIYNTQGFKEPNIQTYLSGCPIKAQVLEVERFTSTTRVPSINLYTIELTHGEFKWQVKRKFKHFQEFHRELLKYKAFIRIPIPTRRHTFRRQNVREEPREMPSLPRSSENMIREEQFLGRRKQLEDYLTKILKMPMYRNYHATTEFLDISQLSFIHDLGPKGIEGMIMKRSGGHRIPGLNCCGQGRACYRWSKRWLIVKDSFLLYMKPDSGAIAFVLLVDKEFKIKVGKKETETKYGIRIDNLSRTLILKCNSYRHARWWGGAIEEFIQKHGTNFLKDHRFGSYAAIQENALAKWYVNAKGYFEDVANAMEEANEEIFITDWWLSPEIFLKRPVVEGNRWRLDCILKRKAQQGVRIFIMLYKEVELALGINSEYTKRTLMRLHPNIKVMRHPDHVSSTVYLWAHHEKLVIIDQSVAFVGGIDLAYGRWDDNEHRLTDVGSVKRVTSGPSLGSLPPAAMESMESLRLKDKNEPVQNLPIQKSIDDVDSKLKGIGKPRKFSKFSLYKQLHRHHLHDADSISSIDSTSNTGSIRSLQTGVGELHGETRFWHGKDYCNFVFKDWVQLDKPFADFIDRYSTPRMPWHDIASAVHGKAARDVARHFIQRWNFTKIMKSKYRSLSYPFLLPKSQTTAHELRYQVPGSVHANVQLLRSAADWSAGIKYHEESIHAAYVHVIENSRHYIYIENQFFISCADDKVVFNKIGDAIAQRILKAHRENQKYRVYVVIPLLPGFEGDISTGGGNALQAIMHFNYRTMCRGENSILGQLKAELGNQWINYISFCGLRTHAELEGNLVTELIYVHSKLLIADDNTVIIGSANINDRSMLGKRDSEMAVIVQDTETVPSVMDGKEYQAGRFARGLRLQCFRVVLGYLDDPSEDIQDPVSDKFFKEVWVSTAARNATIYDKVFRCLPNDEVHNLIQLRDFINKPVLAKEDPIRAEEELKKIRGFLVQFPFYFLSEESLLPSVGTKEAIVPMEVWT
Description: Spodoptera frugiperda (Sf9) cells were cultured in suspension at 2×10^5 to 2×10^6 cells/ml TC 100 medium supplemented with 10% fetal calf serum (Gibco). A cDNA encoding human PLD1b (cloned from placental tissue) was inserted into the transfer vector pACGHLT (Pharmingen) downstream of, and in frame with, vector sequences encoding glutathione-S-transferase (GST), hexahistidine, a protein kinase A phosphorylation site and a thrombin cleavage site. The GST-hPLD1b construct was cotransfected into Sf9 cells with linearized, polyhedrin-minus (PH-), AcMNPV DNA, Bac-N-Blue, according to the supplier's instructions (Invitrogen). Homologous recombination between linearized virus and the transfer vector restored the function of essential viral gene ORF1629 to yield infectious, recombinant virus. After two rounds of plaque-purification, recombinant virus was amplified by large scale infections of Sf9 cells until a titer of 8×10^7 pfu/ml was obtained. […]
as §1, with “Reactions were terminated at 30 second intervals (0-90 seconds) with Tris-HCl (1 M) plus EDTA (50 mM).” left out

[7] = effect on LTB4-stimulated changes in PSDP

Vm app [1]: 0.46 | inhibition of cPLD (in words) [1]: Comparable inhibition was not evident
Compound: CC(C)=CCC/C(C)=C/CC/C(C)=C/CC/C=C(\C)CC/C=C(\C)CCC=C(C)C [Squalene]

Compound: COC(=O)CCC[C@H](O)[C@H](O)/C=C/C=C/C=C\C=C\[C@H](O)COc1ccccc1 [16-phenoxy-LXA4, 16-phenoxy-LXA4-methyl ester]
rank order of potency [2, 7]: 15-epi-LXa>16-phenoxy-LXA4>LXA4

Vm app [1]: 0.43 | inhibition of cPLD (in words) [1]: Comparable inhibition was not evident
Compound: phosphatidic acid

loss in inhibitory potency compared to PSDP ([1]; cPLD): greater than 100 fold | Ki [1]: 3.21 µM | Vm app [1]: 0.36
Compound: CC(C)=CCC/C(C)=C/CC/C(C)=C/C1C(COP(=O)(O)O)C1(C)CC/C=C(\C)CCC=C(C)C (stereo in doubt) [Presqualene monophosphate, presqualene monophosphate]

Compound: CCCCC/C=C\C[C@@H](O)/C=C/C=C/C=C\[C@@H](O)CCCC(=O)O [LTB4, leukotriene B4]
time of maximal increase in PLD activity ([3]; LTB4 100 nM): ≤ 60 s | decrease in [32P]-PSDP ([2]; LTB4 100 nM, within 60 sec, 37° C.): 28%

Compound: CCCCC[C@H](O)/C=C/C=C\C=C\C=C\[C@@H](O)[C@@H](O)CCCC(=O)O [LXA4, lipoxin A4]
rank order of potency [2, 7]: 15-epi-LXa>16-phenoxy-LXA4>LXA4

Compound: COC(=O)CCC[C@H](O)[C@H](O)/C=C/C=C/C=C\C=C\[C@H](O)COc1ccc(F)cc1 [15-epi-LXa, 15-epi-16-para-fluoro-phenoxy-LXA4-methyl ester]
inhibition of LTB4-stimulated O2- generation (in words) [4]: potently inhibited | inhibition of LTB4-stimulated PLD activity ([3]; 15-epi-LXa 100 nM, 5 min, then LTB4 100 nM, at 60 sec): ~81% | effect alone on rate of PIPP remodeling ([2]; 100 nM, without LTB4): did not affect the rate of PIPP remodeling | increase in [32P]-PSDP ([2]; 15-epi-LXa 100 nM, 5 min, then equimolar LTB4 100 nM, at 60 sec): ~72% | potency relative to 16-phenoxy-LXA4 and LXA4 [2, 7]: 1-2 orders of magnitude | rank order of potency [2, 7]: 15-epi-LXa>16-phenoxy-LXA4>LXA4

mode of inhibition (Lineweaver-burk analyses) ([1]; PSDP 10 to 1000 nM): competitive inhibition model | Ki [1]: 0.02 µM | Vm app [1]: 0.25
Compound: CC(C)=CCC/C(C)=C/CC/C(C)=C/C1C(COP(=O)(O)OP(=O)(O)O)C1(C)CC/C=C(\C)CCC=C(C)C (stereo in doubt) [Presqualene diphosphate, presqualene diphosphate]
inhibition of PLD activity [5]: 89.5+/−9.7% | Ki ([6]; rhPLD1b 0.3 u/reaction, 37° C.): 0.006 µM | Vm app ([6]; rhPLD1b in presence of the lipid, enzyme alone Vm 0.36 (nmoles/sec)): 0.03
